For one series, the system named is Clostridioides difficile. Kind of series: Antimicrobial activity against Clostridium difficile clinical isolate obtained from patient after completion of two courses of drug treatment. Format: functional.
Series [1] in a line: Drug level in diarrhea patient feces at 400 mg, po every 12 hrs for 3 days. It is filed as ADME, organism-based. As to conditions: human, read-out: Drug uptake.

Usually MIC stands for the least concentration at which growth counts as inhibited. A lower MIC goes with greater potency. As for `CO[C@H]1/C=C/O[C@@]2(C)Oc3c(C)c(O)c4c(O)c(c5c(nc6cc(C)ccn65)c4c3C2=O)NC(=O)/C(C)=C\C=C\[C@H](C)[C@H](O)[C@@H](C)[C@@H](O)[C@@H](C)[C@H](OC(C)=O)[C@@H]1C` [RIFAXIMIN], the MIC in the series on Clostridioides difficile was > 256 µg/mL. In addition, the concentration at 3 days in series [1] was 8e+06 ng/g.

For the origin of these results see ChEMBL document CHEMBL1275484, “Rifampin and rifaximin resistance in clinical isolates of Clostridium difficile” (Antimicrob Agents Chemother, 2008).
